One series deals with Stromelysin (Homo sapiens, UniProt P08254). Kind of series: MMP inhibition, particle concentration fluorescence assay (stromelysin). Conditions: in vitro; fluorescein/biotin substrate; MMP buffer pH 7.5; room temperature. In kind it is biochemical. How it is done:
Inhibitory activity is evaluated in one or more of the MMP enzymes (stromelysin, gelatinase, and collagenase) in vitro using particle concentration fluorescence assay. An inhibitor binds to MMP enzymes which prevents the degradation of a substrate by stromelysin, gelatinase, or coilagenase. The substrate has attached to it a fluorescein and a biotin moiety. The intact substrate then binds to an avidin-coated particle via the biotin moiety. Once the particle is washed and dried, a fluorescent signal is generated since the fluorescent group is attached to the particle. Without an inhibitor present, the substrate is degraded by MMP enzymes and the fluorescein group is removed, therefore, no fluorescent signal can be detected. Testing compounds are dissolved in DMSO to the desired concentration, then the solutions are diluted to 1:5 with MMP buffer (50 mM Tris-HCl, pH 7.5; 150 mM NaCl; 0.02% NaN3). Serial two-fold dilutions of each compound are prepared. A concentrated, activated enzyme solution is transferred into each plate of the testing compounds, and the mixture is incubated at room temperature for 15 minutes. Thawed MMP substrate is then added into all plates, and the plates are incubated in the dark for 1-3 hours at room temperature. At this point, the substrate mixture is mixed with 0.1% avidin-coated polystyrene particles. After 15 minutes, the fluorescence values are measured following filtration and washing of the beads. Ki values are then calculated.

Chain of Stromelysin (P08254 100-477): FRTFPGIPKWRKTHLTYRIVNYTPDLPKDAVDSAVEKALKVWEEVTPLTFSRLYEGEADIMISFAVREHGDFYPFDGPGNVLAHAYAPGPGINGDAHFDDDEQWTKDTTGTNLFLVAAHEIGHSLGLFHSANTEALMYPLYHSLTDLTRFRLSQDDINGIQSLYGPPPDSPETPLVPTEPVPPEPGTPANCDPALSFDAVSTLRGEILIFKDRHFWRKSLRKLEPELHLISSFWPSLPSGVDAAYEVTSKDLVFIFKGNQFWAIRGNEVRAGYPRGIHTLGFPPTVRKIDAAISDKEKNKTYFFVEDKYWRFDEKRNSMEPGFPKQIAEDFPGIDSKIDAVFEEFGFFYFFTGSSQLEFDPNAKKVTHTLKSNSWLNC

At Stromelysin, `COc1ccc(S(=O)(=O)CC(O)(CS(=O)(=O)c2ccc(-c3ccccc3)cc2)C(=O)NO)cc1` (single isomer, unassigned) [Example 1, Enantiomer B, N-Hydroxy-2-hydroxy-2-[(4-methoxybenzenesulfonyl)methyl]-3-(4-phenylbenzenesulfonyl)-propionamide] yielded an inhibition constant Ki of 80 nM.
With `COc1ccc(S(=O)(=O)CC(O)(CS(=O)(=O)c2ccc(F)cc2)C(=O)NO)cc1` (stereo not shown) [Example 2, N-Hydroxy-2-hydroxy-2-[(4-methoxybenzenesulfonyl)methyl]-3-(4-fluorobenzenesulfonyl)-propionamide], the Ki at Stromelysin was 180 nM.
Same read-out and setting: as for `COc1ccc(C(=O)NCC(O)(CS(=O)(=O)c2ccc(OC)cc2)C(=O)NO)cc1` (stereo not shown) [Example 7, N-Hydroxy-2-hydroxy-2-[(4-methoxybenzenesulfonyl)methyl]-3-(N-(4-methoxybenzenecarbonyl)amino)-propionamide], the figure is 280 nM.
As to `COc1ccc(S(=O)(=O)CC(O)(CNC(=O)c2ccccc2)C(=O)NO)cc1` (stereo not shown) [Example 5], at Stromelysin, the affinity corresponds to a Ki of 240 nM.
As to `COc1ccc(S(=O)(=O)CC(O)(CS(=O)(=O)c2ccc(-c3ccccc3)cc2)C(=O)NO)cc1` (racemic) [Example 1, N-Hydroxy-2-hydroxy-2-[(4-methoxybenzenesulfonyl)methyl]-3-(4-phenylbenzenesulfonyl)-propionamide], the affinity at Stromelysin corresponds to a Ki of 74 nM.
With `COc1ccc(S(=O)(=O)CC(O)(CNC(=O)C2CCCC2)C(=O)NO)cc1` (stereo not shown) [Example 6, N-Hydroxy-2-hydroxy-2-[(4-methoxybenzenesulfonyl)methyl]-3-[N-(cyclopentylcarbonyl)amino]-propionamide], at Stromelysin, the Ki was 350 nM.
In turn, `COc1ccc(S(=O)(=O)CC(O)(CS(=O)(=O)c2ccc(OC)cc2)C(=O)NO)cc1` [Example 4] registered a melting point of 75 to 80 °C. Also, the affinity at Stromelysin, expressed as Ki, was 39 nM.
For the compound `CCCCc1ccc(S(=O)(=O)CC(O)(CS(=O)(=O)c2ccc(OC)cc2)C(=O)NO)cc1` (stereo not shown) [Example 3, N-Hydroxy-2-hydroxy-2-[(4-methoxybenzenesulfonyl)methyl]-3-(4-n-butylbenzenesulfonyl)-propionamide], the Ki on Stromelysin worked out at 46 nM.
On Stromelysin, `COc1ccc(S(=O)(=O)CC(O)(CS(=O)(=O)c2ccc(-c3ccccc3)cc2)C(=O)NO)cc1` (single isomer, unassigned) [Example 1, Enantiomer A, N-Hydroxy-2-hydroxy-2-[(4-methoxybenzenesulfonyl)methyl]-3-(4-phenylbenzenesulfonyl)-propionamide] returned a Ki of 21 nM.

Usually Ki stands for the equilibrium dissociation constant of an inhibitor or competing ligand from its target. Read a high Ki as lower affinity. The melting point is the temperature, or range, at which the solid turns liquid.
